Where only a bound is given, the exact number is not on record here.

The term IC50 denotes the concentration that gives 50% inhibition. In general, melting point refers to the temperature, or range, at which the solid turns liquid.

The target of data set [1] is T1, COX-1 (Ovis aries, UniProt P05979).
T1 construct: purchased Cayman chemical, MI, USA
T1 sequence (P05979 25-600): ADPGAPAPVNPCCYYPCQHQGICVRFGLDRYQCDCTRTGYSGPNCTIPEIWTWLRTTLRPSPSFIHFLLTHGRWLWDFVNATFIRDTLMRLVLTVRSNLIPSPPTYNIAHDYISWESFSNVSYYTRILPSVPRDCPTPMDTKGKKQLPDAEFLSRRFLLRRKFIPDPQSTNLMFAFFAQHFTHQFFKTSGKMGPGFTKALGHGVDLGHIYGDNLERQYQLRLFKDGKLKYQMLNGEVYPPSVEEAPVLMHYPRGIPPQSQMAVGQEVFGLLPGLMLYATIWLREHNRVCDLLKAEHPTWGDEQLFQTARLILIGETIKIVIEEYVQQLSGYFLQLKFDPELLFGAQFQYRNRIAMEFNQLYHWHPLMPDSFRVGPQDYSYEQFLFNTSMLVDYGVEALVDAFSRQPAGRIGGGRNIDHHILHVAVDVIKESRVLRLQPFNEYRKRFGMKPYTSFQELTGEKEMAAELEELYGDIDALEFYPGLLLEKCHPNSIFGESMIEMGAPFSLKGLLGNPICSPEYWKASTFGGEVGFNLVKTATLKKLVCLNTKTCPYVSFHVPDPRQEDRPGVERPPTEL
The data set can be described thus: biochemical. Conditions: ovine COX-1/COX-2 assay kit; mean of two determinations, deviation < 10% of mean. The procedure:
(§1) A group of 1,4-dihydropyridine derivativespossessing a MeSO2 at the para-position of the C-4 phenyl ring, alkyl groups(R1) at the C-2 position and alkyloxycarbonyl groups(COOR2) at the C-3 position were prepared and evaluated for their ability to inhibit COX-1 and COX-2 using chemiluminescent kit (Cayman chemical, MI, USA) according to our previously reported method ([14]).

Data set [2] addresses T2, COX-2 (Ovis aries, UniProt P79208).
T2 construct: purchased Cayman chemical, MI, USA
T2 sequence (P79208 17-603): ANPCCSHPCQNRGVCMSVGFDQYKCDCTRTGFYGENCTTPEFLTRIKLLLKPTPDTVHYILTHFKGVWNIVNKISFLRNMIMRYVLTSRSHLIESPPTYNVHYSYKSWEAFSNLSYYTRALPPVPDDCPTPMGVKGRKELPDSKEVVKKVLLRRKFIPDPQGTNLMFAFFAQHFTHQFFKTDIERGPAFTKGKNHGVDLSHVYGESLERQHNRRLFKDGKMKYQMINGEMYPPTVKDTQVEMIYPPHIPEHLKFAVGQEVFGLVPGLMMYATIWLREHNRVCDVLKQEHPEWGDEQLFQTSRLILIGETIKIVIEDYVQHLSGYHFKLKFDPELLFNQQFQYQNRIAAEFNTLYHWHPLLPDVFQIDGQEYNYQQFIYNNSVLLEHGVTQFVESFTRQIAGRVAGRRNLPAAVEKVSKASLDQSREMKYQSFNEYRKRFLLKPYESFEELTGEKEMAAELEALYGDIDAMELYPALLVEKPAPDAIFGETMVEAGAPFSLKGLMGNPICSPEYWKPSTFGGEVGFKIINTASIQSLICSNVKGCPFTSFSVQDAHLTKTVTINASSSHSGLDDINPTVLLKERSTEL
The data set can be described thus: biochemical. It is filed as biochemical. Conditions: for COX-2 S.I. (in-vitro COX-2 selectivity index): COX-1 IC50/COX-2 IC50; for IC50: ovine COX-1/COX-2 assay kit, mean of two determinations, deviation < 10% of mean; for COX-2 inhibitory activity relative to compound 5e (in words): larger groups (propyl, phenyl) at C-2 position of compound 5e. As for the experimental part: as §1

The molecule `CCOC(=O)C1=C(C)NC2=C(C(=O)CC(C)(C)C2)C1c1ccc(S(C)(=O)=O)cc1` (stereo not drawn) [Compound 5e, Ethyl-1,4,5,6,7,8-hexahydro-2,7,7-trimethyl-4-(4-(methylsulfonyl)phenyl)-5-oxoquinoline-3-carboxylate] registered a melting point of 180.7 to 182.3 °C. This molecule showed an IC50 in data set [1] of 27.6 µM. In addition, in data set [2], the “COX-2 S.I. (in-vitro COX-2 selectivity index)” value is recorded as 92.0 and the IC50 is 0.3 µM.

`CC1=C(C(=O)OC(C)(C)C)C(c2ccc(S(C)(=O)=O)cc2)C2=C(CC(C)(C)CC2=O)N1` (stereo not drawn) [Compound 5h, t-Butyl-1,4,5,6,7,8-hexahydro-2,7,7-trimethyl-4-(4-methanesulfonyl-phenyl)-5-oxo-quinoline-3-carboxylate]: the melting point lay in the range of 163 to 164 °C. In data set [1], this molecule returned an IC50 of 25.5 µM. In data set [2], the “COX-2 S.I. (in-vitro COX-2 selectivity index)” value worked out at 63.7 and the IC50 came out at 0.4 µM.

`COC(=O)C1=C(N)NC2=C(C(=O)CC(C)(C)C2)C1c1ccc(S(C)(=O)=O)cc1` (stereo not drawn) [Compound 5b, Methyl-2-amino-1,4,5,6,7,8-hexahydro-7,7-dimethyl-4-(4-(methylsulfonyl)phenyl)-5-oxo quinolone-3-carboxylate] displayed an IC50 in data set [1] of 31 µM. In addition, in data set [2], the “COX-2 S.I. (in-vitro COX-2 selectivity index)” value is 70.4 and the IC50 was found to be 0.44 µM.

As to `CC1=C(C(=O)OCc2ccccc2)C(c2ccc(S(C)(=O)=O)cc2)C2=C(CC(C)(C)CC2=O)N1` (stereo not drawn) [Compound 5i], the melting point is 136.9 to 138.9 °C. In data set [1], this molecule returned an IC50 of 22.9 µM. Besides, in data set [2], the IC50 was greater than 100 µM.

`COC(=O)C1=C(C)NC2=C(C(=O)CC(C)(C)C2)C1c1ccc(S(C)(=O)=O)cc1` (stereo not drawn) [Compound 5a, Methyl-1,4,5,6,7,8-hexahydro-2,7,7-trimethyl-4-(4-(methylsulfonyl)phenyl)-5-oxoquinoline-3-carboxylate] came in with a melting point of 244 to 245 °C. Besides, the IC50 in data set [1] was found to be 30.2 µM. Further, in data set [2], the “COX-2 S.I. (in-vitro COX-2 selectivity index)” value was determined as 62.9 and the midpoint of inhibition, the IC50, lay at 0.48 µM.

On to `CCOC(=O)C1=C(c2ccccc2)NC2=C(C(=O)CC(C)(C)C2)C1c1ccc(S(C)(=O)=O)cc1` (stereo not drawn) [Compound 5g, Ethyl-1,4,5,6,7,8-hexahydro-7,7-dimethyl-4-(4-(methylsulfonyl)phenyl)-5-oxo-2-phenylquinoline-3-carboxylate], for which the melting point is 187.9 to 189 °C. Further, the IC50 in data set [1] turned out to be 46.1 µM. Also, in data set [2], the “COX-2 inhibitory activity relative to compound 5e (in words)” value was “significant loss of activities” and the half-maximal inhibitory concentration (IC50) was greater than 100 µM.

In turn, `CCCC1=C(C(=O)OCC)C(c2ccc(S(C)(=O)=O)cc2)C2=C(CC(C)(C)CC2=O)N1` (stereo not drawn) [Compound 5f, Ethyl-1,4,5,6,7,8-hexahydro-7,7-dimethyl-4-(4-(methylsulfonyl)phenyl)-5-oxo-2-propylquinoline-3-carboxylate] gave a melting point of 163 to 164 °C. The midpoint of inhibition in data set [1], the IC50, lay at 25.2 µM. Besides, in data set [2], the “COX-2 S.I. (in-vitro COX-2 selectivity index)” value is given as 18.2, the “COX-2 inhibitory activity relative to compound 5e (in words)” value is reported as “significant loss of activities” and the concentration for half-maximal inhibition (IC50) turned out to be 1.38 µM.

Take `COC(=O)C1=C(C(C)C)NC2=C(C(=O)CC(C)(C)C2)C1c1ccc(S(C)(=O)=O)cc1` (stereo not drawn) [Compound 5d]: the figures for the IC50 in data set [1] and in data set [2] were 27.6 µM and 0.62 µM, respectively.

Take `CCC1=C(C(=O)OC)C(c2ccc(S(C)(=O)=O)cc2)C2=C(CC(C)(C)CC2=O)N1` (stereo not drawn) [Compound 5c, Methyl-2-ethyl-1,4,5,6,7,8-hexahydro-7,7-dimethyl-4-(4-(methylsulfonyl)phenyl)-5-oxoquinoline-3-carboxylate]: the melting point was 186.5 to 188 °C. This molecule had a 50% inhibitory concentration (IC50) in data set [1] of 30.7 µM. In data set [2], the “COX-2 S.I. (in-vitro COX-2 selectivity index)” value stood at 52.1 and half-maximal inhibition (IC50) was put at 0.59 µM.
